Measurements as given in article PMC7190724, “Improved GPCR ligands from nanobody tethering” (Nature Communications, 2020).
Where two headings read alike, the source gives them in different places. Where a SMILES comes first, the peptide text is derived from it. [ ]: non-standard residue; d: D form. Aib = CC(C)(N)C(=O)O

Assays:
PTHR1GFP [1] = biological target: T1, PTHR1GFP (Homo sapiens, UniProt Q03431); test: Flow cytometry binding of VHH-Alexafluor647 to HEK293 expressing PTHR1GFP; conditions: 100 nM VHH-Alexafluor647, on ice
T1 sequence (Q03431 27-593): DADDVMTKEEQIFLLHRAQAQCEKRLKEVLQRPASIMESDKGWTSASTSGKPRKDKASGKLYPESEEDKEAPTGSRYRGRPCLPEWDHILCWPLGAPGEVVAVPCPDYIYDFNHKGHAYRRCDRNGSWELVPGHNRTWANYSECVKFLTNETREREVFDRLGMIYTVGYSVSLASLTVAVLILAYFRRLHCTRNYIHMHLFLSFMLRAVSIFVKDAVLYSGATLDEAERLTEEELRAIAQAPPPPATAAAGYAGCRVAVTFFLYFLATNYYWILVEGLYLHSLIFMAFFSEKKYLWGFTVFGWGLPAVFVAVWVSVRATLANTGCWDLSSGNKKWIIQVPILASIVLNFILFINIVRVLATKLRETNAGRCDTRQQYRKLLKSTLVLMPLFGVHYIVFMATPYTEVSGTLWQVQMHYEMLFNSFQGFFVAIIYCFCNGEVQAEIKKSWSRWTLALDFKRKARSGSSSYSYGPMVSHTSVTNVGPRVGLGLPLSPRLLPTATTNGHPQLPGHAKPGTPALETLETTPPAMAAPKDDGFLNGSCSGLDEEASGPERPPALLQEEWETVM
Experimental: (§1) Suspensions of cells in PBS were stained for 1 h on ice in the presence of indicated concentrations of VHH probes functionalized with Alexafluor647. Cells were pelleted by centrifugation and washed with PBS prior to analysis by flow cytometry (BD Accuri C6). To select intact cells gating was performed on forward scatter/side scatter profiles for analysis (see Supplementary Fig. 4 for an example of the gating strategy). Data were analyzed using FlowJo version 7.6. The median fluorescent intensity (MFI) of stained cells was used to generate VHH binding dose response curves (Supplementary Fig. 4).
Supplementary Figure 1. […] HEK293 cell lines in suspension were incubated on ice with 100 nM VHH sortagged with Alexafluor647, pelleted by centrifugation, washed and analyzed. […]
PTHR1GFP. This weak staining is likely related to the inability of VHHGFP to tightly bind the pH-sensitive GFP variant known as pHluorin2 engrafted into the receptor(ref. 19, main text). c) HEK293 cells stably expressing PTHR1-GFP were treated with varied doses of the indicated peptides or conjugates and activation was assessed by measuring luminescence from a cAMP-activated luciferase variant. […]
Supplementary Figure 4. […] Cells were centrifuged, washed, and analyzed by flow cytometry via gating of intact cells (live gate) based on forward scatter/side scatter profiles (panel a). […]

PTHR1YFPΔECD [2] = biological target: T2, PTHR1YFPΔECD (Homo sapiens, UniProt Q03431); test: Flow cytometry binding of VHH-Alexafluor647 to HEK293 expressing PTHR1YFPΔECD
T2 construct: expressed in transfected cells; host or cells: HEK293 (clone GD5Y) with GloSensor cAMP reporter
T2 sequence (Q03431 with tags, fused parts or gaps limits assumed): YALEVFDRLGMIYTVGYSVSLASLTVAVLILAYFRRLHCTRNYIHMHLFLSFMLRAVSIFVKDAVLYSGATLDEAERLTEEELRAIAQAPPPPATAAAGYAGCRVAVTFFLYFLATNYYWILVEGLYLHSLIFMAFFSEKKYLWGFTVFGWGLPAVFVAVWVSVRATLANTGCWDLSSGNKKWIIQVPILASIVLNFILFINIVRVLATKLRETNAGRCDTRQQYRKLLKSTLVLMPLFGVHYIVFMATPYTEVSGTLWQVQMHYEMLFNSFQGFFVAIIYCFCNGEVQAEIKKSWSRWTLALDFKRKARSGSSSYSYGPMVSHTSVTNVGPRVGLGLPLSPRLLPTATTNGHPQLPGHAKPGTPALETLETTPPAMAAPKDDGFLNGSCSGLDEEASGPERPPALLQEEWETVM
Experimental: as §1
Supplementary Figure 4. Assessment of VHH binding to PTHR1 variants by flow cytometry. Cells dislodged from tissue culture plates using trypsinization were incubated with varied concentrations of VHHs sortagged with AlexaFluor647 on ice for 1 h. Cells were centrifuged, washed, and analyzed by flow cytometry via gating of intact cells (live gate) based on forward scatter/side scatter profiles (panel a). (b) Data points represent median fluorescent intensity values ( individual data points shown, n = 2 independent replicates per condition). Connecting curves are the result of fitting a sigmoidal dose - response model to the data points. Precise estimates for VHH PTHR binding cannot be provided since the […]
(1 picture or pasted object on this page, not shown here)

hPTHR1 = biological target: T3, hPTHR1 (Homo sapiens, UniProt Q03431); test: cAMP response (GloSensor luminescence), HEK293 stably expressing human PTHR1 (GP2.3); format: cell-based; conditions: peak GloSensor luminescence 12–16 min after ligand; mean ± SD, ≥3 independent experiments; highest conc. 100 nM conjugates, 10,000 nM peptides; read-out: EC50, cAMP induction
T3 construct: expressed in transfected cells; host or cells: HEK293 (clone GP2.3) with GloSensor cAMP reporter
T3 sequence (Q03431 27-593): T1 sequence (Q03431 27-593)
Experimental: (§2) A HEK293 cell line stably expressing β-Arrestin2-YFP (GBR24) was constructed similarly. PTHR1_6E was produced using the Q5 Site-directed mutagenesis kit (NEB) and used to prepare a stably transfected HEK293-derived cell line. Annotated sequence data for all PTHR1 constructs are found in Supplementary Fig. 19. Aligned sequences of VHHs used in this study are shown in Supplementary Fig. 20.
(§3) These assays were performed as previously described. […] Confluent monolayers of cells were pre-incubated with CO2 independent medium containing D-luciferin (0.5 mM) at 37 °C until a stable baseline level of luminescence was established (20 min). Varying concentrations of ligands were then added, and the time course of luminescence response was recorded using BioTek plate reader.
(§4) Data were processed using Microsoft Excel and GraphPad Prism 6. Data from cAMP dose–response assays were analyzed using a sigmoidal dose–response model with variable slope. Data sets were statistically compared by using Student’s t test (two-tailed) assuming unequal variances for the two sets.

PTHR1_6E = biological target: T4, PTHR1_6E (Homo sapiens, UniProt Q03431); test: cAMP response (GloSensor luminescence), HEK293 stably expressing PTHR1_6E; format: cell-based; conditions: peak GloSensor luminescence; mean ± SD, ≥3 independent experiments; read-out: EC50, cAMP induction
T4 sequence (Q03431 106-593 limits assumed): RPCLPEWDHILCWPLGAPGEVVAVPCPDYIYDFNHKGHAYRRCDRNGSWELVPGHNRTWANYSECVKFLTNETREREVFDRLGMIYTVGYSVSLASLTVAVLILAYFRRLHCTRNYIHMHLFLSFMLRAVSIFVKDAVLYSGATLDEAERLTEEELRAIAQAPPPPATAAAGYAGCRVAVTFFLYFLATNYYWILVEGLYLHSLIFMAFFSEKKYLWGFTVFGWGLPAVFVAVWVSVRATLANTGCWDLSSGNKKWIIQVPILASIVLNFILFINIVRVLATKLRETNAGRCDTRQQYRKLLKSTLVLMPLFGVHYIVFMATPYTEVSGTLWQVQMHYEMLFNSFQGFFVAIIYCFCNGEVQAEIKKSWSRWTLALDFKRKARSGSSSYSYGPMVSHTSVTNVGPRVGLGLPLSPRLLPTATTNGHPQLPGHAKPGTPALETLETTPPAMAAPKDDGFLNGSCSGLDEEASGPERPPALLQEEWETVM
Experimental: as §2, §3, §4

PTHR1YFPΔECD [3] = biological target: T2, PTHR1YFPΔECD; test: cAMP response (GloSensor luminescence), HEK293 stably expressing PTHR1YFPΔECD (GD5Y); format: cell-based; conditions: peak GloSensor luminescence; mean ± SD, ≥3 independent experiments; read-out: EC50, cAMP induction
Experimental: as §2, §3, §4

PTHR1GFP [4] = biological target: T1, PTHR1GFP; test: cAMP response (GloSensor luminescence), HEK293 stably expressing PTHR1GFP (GPG10); format: cell-based
Experimental: (§5) These assays were performed as previously described. Briefly, HEK-293-derived cell lines that stably express the Glosensor cAMP reporter (Promega Corp.)[30] and PTHR1, a PTHR1 variant, or PTHR2 were seeded into white sided 96-well plates (50,000 cells/well) and grown to confluency. Confluent monolayers of cells were pre-incubated with CO2 independent medium containing D-luciferin (0.5 mM) at 37 °C until a stable baseline level of luminescence was established (20 min). Varying concentrations of ligands were then added, and the time course of luminescence response was recorded using BioTek plate reader. The maximal luminescence response (observed 12–16 min after ligand addition) was used to construct dose-response data sets (Table 1, Supplementary Fig. 6).
as §4
Supplementary Figure 1. […]
GFP variant known as pHluorin2 engrafted into the receptor(ref. 19, main text). c) HEK293 cells stably expressing PTHR1-GFP were treated with varied doses of the indicated peptides or conjugates and activation was assessed by measuring luminescence from a cAMP-activated luciferase variant. Values listed represent EC50 values (mean ± SD). Each value comes from ≥ 3 independent experiments. Further details, including the number of replicates for each measurement and the normalized maximal responses induced, are reported in Supplementary Table 1. […]
than 5% of the maximal response induced for that cell line.
Peptide or conjugate PTHR1GFP

hPTHR2 = biological target: T5, hPTHR2 (Homo sapiens, UniProt P49190); test: cAMP response (GloSensor luminescence), HEK293 stably expressing hPTHR2; format: cell-based; conditions: peak GloSensor luminescence; mean ± SD, n = 3-4; read-out: EC50, cAMP induction
T5 construct: expressed in transfected cells
Experimental: as §5, §4

T5 sequence (P49190 25-550): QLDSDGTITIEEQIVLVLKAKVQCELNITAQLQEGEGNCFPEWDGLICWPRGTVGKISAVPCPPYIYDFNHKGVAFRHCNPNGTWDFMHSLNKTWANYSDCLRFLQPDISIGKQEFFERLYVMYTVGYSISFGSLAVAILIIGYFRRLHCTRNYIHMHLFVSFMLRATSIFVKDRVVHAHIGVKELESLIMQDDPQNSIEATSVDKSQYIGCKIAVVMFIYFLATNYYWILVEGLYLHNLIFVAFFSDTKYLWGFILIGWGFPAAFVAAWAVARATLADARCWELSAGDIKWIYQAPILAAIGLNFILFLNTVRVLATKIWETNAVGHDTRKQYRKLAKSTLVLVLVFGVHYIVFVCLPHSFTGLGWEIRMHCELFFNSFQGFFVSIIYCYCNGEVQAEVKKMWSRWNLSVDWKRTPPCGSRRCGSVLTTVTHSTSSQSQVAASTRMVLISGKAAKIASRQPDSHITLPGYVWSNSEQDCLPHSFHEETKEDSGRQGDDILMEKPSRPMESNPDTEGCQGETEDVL

| Compound | staining of cells (PTHR1GFP [1]) | staining of cells (PTHR1YFPΔECD [2]; 100 nM VHH-Alexafluor647, on ice) | half-maximal staining concentration (PTHR1YFPΔECD [2]; flow cytometry MFI, VHH-Alexafluor647, 1 h on ice) | EC50 (hPTHR1) | EC50 (PTHR1_6E) | EC50 (PTHR1YFPΔECD [3]) | EC50 (PTHR1GFP [4]) | EC50 (hPTHR2) | EC50 (PTHR1GFP [4]; peak GloSensor luminescence, mean ± SD, ≥3 independent experiments, read-out: EC50, cAMP induction) |
| --- | --- | --- | --- | --- | --- | --- | --- | --- | --- |
| VHHGFP: nanobody recognizing green or yellow fluorescent proteins (named VHH-enhancer) | only weakly stained | stained | < 10 nM | – | – | – | – | – | – |
| CC[C@H](C)[C@H](NC(=O)[C@H](CCC(=O)O)NC(=O)C(C)(C)NC(=O)[C@@H](NC(=O)[C@H](C)N)C(C)C)C(=O)N[C@@H](CCC(N)=O)C(=O)N[C@@H](CC(C)C)C(=O)N[C@@H](CCSC)C(=O)N[C@@H](Cc1c[nH]cn1)C(=O)N[C@@H](CCC(N)=O)C(=O)N[C@@H](CCCNC(=N)N)C(=O)N[C@@H](C)C(=O)N[C@@H](CCCCN)C(=O)N[C@@H](Cc1c[nH]c2ccccc12)C(=O)N[C@@H](CS)C(N)=O [PTH(1-14)] (H-AV[Aib]EIQLMHQRAKWC-NH2) | – | – | – | 4.3 nM | 3.4 nM | 1.1 nM | 2.3 ± 1.2 nM | 924 ± 328 nM | – |
| CC[C@H](C)[C@H](NC(=O)[C@H](CCC(=O)O)NC(=O)C(C)(C)NC(=O)[C@@H](NC(=O)[C@H](C)N)C(C)C)C(=O)N[C@@H](CCC(N)=O)C(=O)N[C@@H](CC(C)C)C(=O)N[C@@H](CCSC)C(=O)N[C@@H](Cc1c[nH]cn1)C(=O)N[C@@H](CCC(N)=O)C(=O)N[C@@H](CS)C(N)=O [PTH(1-10)] (H-AV[Aib]EIQLMHQC-NH2) | – | – | – | 3120 nM | 5080 nM | 3840 nM | – | – | 2550 ± 653 nM |
